{"source": "patent US8389680B2", "about": "“Treatment of Aspergillus infections with alpha thymosin peptides” (SciClone Pharmaceuticals, Inc., priority 2003, dated 2013)", "key": {"[1]": {"test_system": "human MDC and PDC subsets", "assay": "Activation of human MDC and PDC subsets: phagocytosis, phenotype, cytokine release", "type": "cell-based", "settings": "in response to conidia", "description": "Blood CD 11c^+ myeloid DCs (MDCs) were generated from CD 14^+ mononuclear cells by magnetic cell sorting and cultured for 5 days in Iscove's modified medium, containing 10% fetal bovine serum, 50 micromolar 2-mercaptoethanol, sodium pyruvate (1 mM), 2 mM L-glutamine, HEPES (10 mM), and 50 micrograms/ml gentamycin in the presence of 50 ng/ml rHuman GM-CSF and 200 U/ml rHuman IL-4. Immature MDCs were cultured for 24 hours with 1000 ng/ml trimeric human CD40 ligand-leucine-zipper fusion protein to obtain mature DCs. CD 123^+ plasmacytoid DCs (PDCs) were isolated using the BDCA-4 isolation kit. Purity of CD 123^+ cells was >96%. For mature PDCs, immature DCs were cultured with the trimeric human CD40 ligand as above and 10 ng/ml IL-3. […] The expression of HLA Class II, CD80 and CD86 was high in both immature and mature DCs. Murine lung CD 11c^+ DCs (between 5 to 7% positive for CD8alpha and between 30 to 35% positive for Gr-1) were isolated by magnetic cell sorting. For phagocytosis, DCs were pre-exposed to 100 ng/ml TA1 for 60 minutes and subsequently incubated at 37° C. with Aspergillus conidia for an additional 60 minutes. The percentage of internalization was calculated and photographs were taken. In assessing functional maturation and cytokine determination, purified DCs were resuspended in Iscove's medium (with no serum but with polymixin B, to avoid non-specific activation by serum components and endotoxin) and pulsed with 100 ng/ml TA1 for 24 hours either alone or together with TLR ligands or unopsonized Aspergillus conidia. Cell surface phenotype was assessed by reacting samples with FITC- or PE-conjugated rat anti-mouse antibodies. Unrelated hisotype matched antibodies were used as control. The levels of TNF-alpha, IL-10, IL-12 p70, IFN-alpha and IL-8 in culture supernatants were determined by Kit ELISAs. The detection limits (pg/ml) of the assays were <3 (human) and <32 (murine) for TNF-alpha, <12 (murine) and <5 (human) for IL-10, <16 (murine) and <3 (human) for IL-12 p70 and <25 (human) IL-8. For human IFN-alpha <3 ng/ml. For enumeration of cytokine-producing cells, an ELISPOT assay was used on purified CD4^+ T cells and DCs from lungs."}, "murine DCs": {"test_system": "murine DCs", "assay": "RT-PCR of TLR expression on DCs", "type": "cell-based", "description": "Synthesis and PCR of cDNA were performed with forward and reverse PCR primers and the cycles used for murine and human TLRs and HPRT. The synthesized PCR products were separated by electrophoresis on 2% agarose gel and visualized by ethidium bromide staining."}, "p38 and NF-kB": {"test_system": "p38 and NF-kB", "assay": "Analysis of p38 and NF-kB activation on lung DCs", "type": "cell-based, murine", "description": "P38 and NF-kB were activated on lung DCs by exposure for 20 minutes at 37° C. to Aspergillus conidia and/or 100 ng/ml TA1. Blots of cell lysates were incubated with rabbit polyclonal Abs recognizing either the unphosphorylated form of p38 MAPK, or the double-phosphorylated (Thr-180/Tyr-182) p38 MAPK, or Abs specific for the Rel A, 65 kDa DNA binding subunit of human NF-kB followed by horseradish peroxidase-conjugated goat anti-rabbit IgG, as per manufacturer's instructions. Blots were developed with an Enhanced Chemiluminescence detection kit. Bands were visualized after exposure of the blots to a Kodak RX film. To ensure similar protein loading in each lane, the phospho blots were stripped and the membranes were reprobed with Abs against p38 and NF-kB."}, "A. fumigatus": {"test_system": "A. fumigatus", "assay": "BMT mice with invasive aspergillosis: survival, fungal growth in lungs (chitin assay), lung histology", "type": "in vivo", "settings": "G-CSF 250 microgram/kg intravenously", "description": "For infection with A. fumigatus, mice were intranasally injected for 3 consecutive days with a suspension of 2×10^7 conidia/20 microliter saline. For the quantification of fungal growth in the lungs, the chitin assay was used. The chitin content was expressed as micrograms of glucosamine per organ. The glucosamine content of lungs from uninfected mice was used as a negative control ranging between 0.80 and 2.25 microgram glucosamine/organ. For histological analysis, lungs were excised and immediately fixed in formalin. Sections (3 to 4 micron) of paraffin-embedded tissues were stained with the periodic acid-Schiff procedure. Thymosin alpha 1 (TA1) and the scrambled polypeptide are as purified sterile lyophilized acetylated polypeptides with endotoxin levels less than 0.03 pg/ml, by a standard limulus lysate assay. The sequences were as follows: Ac-[…]O (Thymosin alpha 1, SEQ ID NO.: 1) and Ac-[…]OH ([…]). Their lyophilized powders were reconstituted in sterile water.\nThe treatments were as follows; in BMT-mice, TA1, at different doses administered intraperitoneally, sthymosin alpha 1, 400 microgram/kg administered intraperitoneally or human recombinant G-CSF 250 microgram/kg administered intravenously, were given daily beginning the day of the BM infusion, in concomitance with the infection and continuing for an additional 3 days. Amphotericin B was given daily for 3 days in concomitance with the infection, at a dose of 4000 microgram/kg, administered intraperitoneally. This dose would cure IA in cyclophosphamide-treated mice. Cyclophosphamide, 150 mg/kg administered intraperitoneally, was given a day before the infection. In cyclophosphamide-treated mice, 400 microgram/kg TA1 was given intraperitoneally for 5 consecutive days beginning the day of the infection.\nC57BL6 mice were exposed to a lethal dose of 9 Gy and infused with T cell-depleted donor cells from BALB/c mice."}, "[2]": {"settings": "combined exposure to conidia and peptide"}}}
{"molecule": "Ac-Ala-Lys-Ser-Asp-Val-Lys-Ala-Glu-Thr-Ser-Ser-Glu-Ile-Asp-Thr-Thr-Glu-Leu-Asp-Glu-Lys-Val-Glu-Val-Lys-Ala-Asn-Glu-OH (Ac-AKSDVKAETSSEIDTTELDEKVEVKANE-OH) [scrambled peptide]", "values": [{"measurement": "HLA Class II antigens and costimulatory molecule expression", "setting": "[1]", "value": "failed to up-regulate"}, {"measurement": "cytokine production by DCs", "setting": "[1]", "value": "failed"}, {"measurement": "expression of TLR2", "setting": "murine DCs; [2]", "value": "failed to activate"}, {"measurement": "expression of TLR9", "setting": "murine DCs; [2]", "value": "failed to activate"}, {"measurement": "expression of TLR2", "setting": "murine DCs; peptide alone", "value": "failed to activate"}, {"measurement": "expression of TLR9", "setting": "murine DCs; peptide alone", "value": "failed to activate"}, {"measurement": "p38 phosphorylation", "setting": "p38 and NF-kB; peptide alone, 20 minutes", "value": "not stimulated"}, {"measurement": "p38 phosphorylation", "setting": "p38 and NF-kB; scrambled peptide plus conidia", "value": "not stimulated"}]}
{"molecule": "Oc1ccc(-c2nc(-c3ccncc3)c(-c3ccc(F)cc3)[nH]2)cc1", "note": "[SB202190]", "values": [{"measurement": "effect of inhibitor on the effect of TA1 on DCs", "setting": "p38 and NF-kB; inhibitor given with TA1", "value": "ablate the effect of TA1 on DCs"}]}
{"molecule": "G-CSF: human recombinant G-CSF, known to accelerate neutrophil recovery in mice (protein, UniProt P09919 31-207, looked up) Granulocyte …: TPLGPASSLPQSFLLKCLEQVRKIQGDGAALQEKLVSECATYKLCHPEELVLLGHSLGIPWAPLSSCPSQALQLAGCLSQLHSGLFLYQGLLQALEGISPELGPTLDTLQLDVADFATTIWQQMEELGMAPALQPTQGAMPAFASAFQRRAGGVLVASHLQSFLEVSYRVLRHLAQP", "values": [{"measurement": "antifungal resistance by recovery from neutropenia alone, compared with TA1", "setting": "A. fumigatus", "value": "not sufficient"}]}
